Measured values as given in ChEMBL document CHEMBL4130593, “Identification of an Indazole-Based Pharmacophore for the Inhibition of FGFR Kinases Using Fragment-Led de Novo Design” (ACS Med Chem Lett, 2017).

Experiments:
[1] = target: T1, Fibroblast growth factor receptor 1 (Homo sapiens, UniProt P11362); test: Inhibition of recombinant human His-tagged FGFR1 cytoplasmic domain (308 to 731 residues) expressed in baculovirus expression system at 100 uM using Tyr 04 as substrate measured after 1 hr by Z'-LYTE assay relative to control
[2] = target: T1, Fibroblast growth factor receptor 1; test: Inhibition of recombinant human His-tagged FGFR1 cytoplasmic domain (308 to 731 residues) expressed in baculovirus expression system using Tyr 04 as substrate measured after 1 hr by Z'-LYTE assay
[3] = target: T1, Fibroblast growth factor receptor 1; test: Inhibition of recombinant human His-tagged FGFR1 cytoplasmic domain (308 to 731 residues) expressed in baculovirus expression system at 500 uM using Tyr 04 as substrate measured after 1 hr by Z'-LYTE assay relative to control
[4] = target: Fibroblast growth factor receptor 3 (Homo sapiens, UniProt P22607); test: Inhibition of recombinant human His-tagged FGFR3 cytoplasmic domain (399 to 806 residues) expressed in baculovirus expression system using Tyr 04 as substrate measured after 1 hr by Z'-LYTE assay
Sequence of Fibroblast growth factor receptor 3 (P22607 whole entry, the tested form may be a part): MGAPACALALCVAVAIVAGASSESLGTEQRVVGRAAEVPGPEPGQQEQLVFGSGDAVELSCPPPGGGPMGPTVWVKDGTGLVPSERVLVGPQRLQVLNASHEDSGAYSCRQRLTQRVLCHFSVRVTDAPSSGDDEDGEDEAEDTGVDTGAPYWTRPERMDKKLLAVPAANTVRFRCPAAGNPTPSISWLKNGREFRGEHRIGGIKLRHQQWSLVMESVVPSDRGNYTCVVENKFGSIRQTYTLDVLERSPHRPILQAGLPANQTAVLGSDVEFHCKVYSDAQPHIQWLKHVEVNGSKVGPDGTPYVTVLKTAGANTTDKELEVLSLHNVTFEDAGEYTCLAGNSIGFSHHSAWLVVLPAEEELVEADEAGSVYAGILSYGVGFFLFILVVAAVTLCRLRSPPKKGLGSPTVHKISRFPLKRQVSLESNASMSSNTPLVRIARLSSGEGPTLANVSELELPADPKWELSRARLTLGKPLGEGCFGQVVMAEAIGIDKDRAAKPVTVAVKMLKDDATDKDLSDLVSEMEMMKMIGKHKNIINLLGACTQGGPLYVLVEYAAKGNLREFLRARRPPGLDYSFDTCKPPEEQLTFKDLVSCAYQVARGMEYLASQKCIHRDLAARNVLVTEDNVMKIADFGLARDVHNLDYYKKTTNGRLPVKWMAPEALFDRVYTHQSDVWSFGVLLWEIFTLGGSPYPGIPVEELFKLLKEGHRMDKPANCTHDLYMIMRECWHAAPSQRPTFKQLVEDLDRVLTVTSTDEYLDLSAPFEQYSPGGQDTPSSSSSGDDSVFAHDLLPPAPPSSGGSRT

T1 sequence (P11362 whole entry, the tested form may be a part): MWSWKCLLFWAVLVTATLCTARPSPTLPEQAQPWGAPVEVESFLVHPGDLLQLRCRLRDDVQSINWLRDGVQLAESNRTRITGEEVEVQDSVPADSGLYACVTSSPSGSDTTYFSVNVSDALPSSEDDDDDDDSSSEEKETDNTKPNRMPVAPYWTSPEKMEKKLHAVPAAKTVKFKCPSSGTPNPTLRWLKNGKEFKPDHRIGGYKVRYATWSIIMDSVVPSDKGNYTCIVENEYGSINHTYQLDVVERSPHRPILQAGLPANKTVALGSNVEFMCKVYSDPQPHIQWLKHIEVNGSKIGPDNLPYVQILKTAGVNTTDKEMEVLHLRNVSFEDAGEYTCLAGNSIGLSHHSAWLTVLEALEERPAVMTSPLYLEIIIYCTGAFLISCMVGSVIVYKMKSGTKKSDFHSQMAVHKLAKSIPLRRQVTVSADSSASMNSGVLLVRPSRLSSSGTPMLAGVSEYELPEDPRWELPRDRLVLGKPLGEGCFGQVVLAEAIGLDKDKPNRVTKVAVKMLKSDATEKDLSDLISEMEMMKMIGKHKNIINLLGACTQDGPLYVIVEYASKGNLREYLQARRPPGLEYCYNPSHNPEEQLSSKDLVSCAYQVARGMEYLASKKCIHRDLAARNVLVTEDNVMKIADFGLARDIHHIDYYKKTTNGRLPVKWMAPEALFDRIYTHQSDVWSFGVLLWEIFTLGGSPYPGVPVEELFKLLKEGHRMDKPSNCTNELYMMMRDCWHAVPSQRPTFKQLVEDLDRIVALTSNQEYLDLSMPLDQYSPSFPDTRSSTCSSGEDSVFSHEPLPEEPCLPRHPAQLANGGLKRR

Structure (SMILES)	inhibition at 100 µM [1] [%]	IC50 [2] [µM]	also measured
COc1ccc(-c2ccc3cn[nH]c3c2)cc1	11		
Oc1ccc(-c2ccc3cn[nH]c3c2)cc1F		14	
c1cncc(-c2ccc3cc[nH]c3c2)c1			inhibition at 500 µM [3]: 16%
CCOc1cccc(-c2ccc3cn[nH]c3c2)c1F		9.7	IC50 [4]: > 100 µM
FC(F)(F)c1cc(-c2ccc3cn[nH]c3c2)cc(C(F)(F)F)c1	-5		
Clc1cccc(-c2ccc3cn[nH]c3c2)c1	32		
CCOc1cc(F)cc(-c2ccc3cn[nH]c3c2)c1		83	IC50 [4]: > 100 µM
c1cc(-c2ccc3cn[nH]c3c2)cs1	20		
c1ccc(-c2ccc3cc[nH]c3c2)cc1			inhibition at 500 µM [3]: 1%
c1coc(-c2ccc3cn[nH]c3c2)c1	29		
CCOc1ccc(F)c(-c2ccc3cn[nH]c3c2)c1F		> 100	IC50 [4]: > 100 µM
Cc1csc(-c2ccc3cn[nH]c3c2)c1	19		
Cc1cc(-c2ccc3cn[nH]c3c2)ccc1O		8.8	
Clc1cncc(-c2ccc3cc[nH]c3c2)c1		> 500	inhibition at 500 µM [3]: 21%
Oc1ccc(-c2ccc3cn[nH]c3c2)c(F)c1		9.9	IC50 [4]: > 100 µM
Fc1cccc(-c2ccc3cn[nH]c3c2)c1	19		
Clc1cncc(-c2ccc3cn[nH]c3c2)c1		36	inhibition at 500 µM [3]: 73%
Clc1ccc(-c2ccc3cn[nH]c3c2)cc1	12		
c1cncc(-c2ccc3cn[nH]c3c2)c1		90	inhibition at 500 µM [3]: 66%
Cc1cc(O)ccc1-c1ccc2cn[nH]c2c1		6.4	
c1ccc(-c2ccc3cn[nH]c3c2)cc1		77	inhibition at 500 µM [3]: 53%
